# Where two headings read alike, the source gives them in different places.
# Columns and labels:
# [1] = target: T1, polyamine binding site (ifenprodil binding site at the NMDA receptor/ion channel complex) (Rattus norvegicus, UniProt P35439+Q00960); assay: Ifenprodil binding ([3H]-ifenprodil displacement, rat forebrain membranes)
# T1 construct: Homogenates of rat forebrain were centrifuged repeatedly; from tissue; host or cells: rat forebrain membranes
# Procedure: (§1) Additionally, in the binding experiment this active compound displaces tritiated ifenprodil in the forebrain of rats from its binding site (for method see Schoemaker et al., European J. Pharmacol. 176 (1990), 249-250), which represents a receptor at the N-methyl-D-aspartate (NMDA) receptor/ion channel complex as a subtype of the glutamate receptors.
# 1. Ifenprodil binding (Schoemaker et al., 1990)
# Homogenates of rat forebrain were centrifuged repeatedly. The last membrane […] (10 mg/ml) was used to determine the specific binding in the presence of 1.15 nM [^3H]-ifenprodil in 5 ml of buffer solution at pH 7.4. The unspecific binding was determined in the presence of 100 μM of ifenprodil.
# rats [2] = assay: Inhibition of apomorphine-induced stereotypical behaviour in rats; assay type: in vivo, rat; conditions: for ED50: Rattus norvegicus, sc, read-out: Inhibition of apomorphine-induced stereotypical behaviour in rats 50% inhibition/ED50 s.c. at:
# Description: as §1
# 2. Inhibition of apomorphine-induced stereotypical behaviour in rats (Puech et al., 1978):
# Stereotypical behaviour (unmotivated sniffling, licking, chewing, rhythmic movements with the forepaws) was induced by administration of 0.5 mg/kg s.c. of apomorphine. The intensity of the ensuing stereotypical behaviour was assessed every 5 minutes for each rat for a period of 30 minutes using a rating system (0-3). The total score was used as a measure of the occurence of the stereotypical behaviour.
# mice [3] = assay: Apomorphine-induced climbing behaviour in mice; assay type: in vivo, mouse
# mice [4] = assay: Spontaneous behaviour of mice (Irwin); assay type: in vivo, mouse
# rats [5] = assay: Conditioned avoiding reaction in rats; assay type: in vivo, rat
# rats [6] = assay: Catalepsy induction in rats; assay type: in vivo, rat
# Procedure: as §1
# 3. Catalepsy induction in rats (Stanley and Glick, 1976):
# The occurrence of catalepsy in rats was measured by placing a hindpaw on a 3 cm high block and scoring every 5 minutes for a period of 30 minutes the time for which the rat stayed in this unnatural position using a rating system (score 0-3). The total score was used as a measure of the intensity of the catalepsy.
# rats [7] = assay: Ultrasound vocalization after electric stimulation in rats; assay type: in vivo, rat; conditions: proof of the anxiolytic action
# rats [8] = assay: Spontaneous behaviour of rats (Irwin); assay type: in vivo, rat
# [9] = rat forebrain homogenate, 1.15 nM [3H]-ifenprodil, pH 7.4, methanesulfonate salts, read-out: Ifenprodil binding in vitro 50% displacement/IC50 at:
# [10] = apomorphine 0.5 mg/kg s.c., methanesulfonate salts
# T1 sequence (Q00960 27-1482, other chains not shown): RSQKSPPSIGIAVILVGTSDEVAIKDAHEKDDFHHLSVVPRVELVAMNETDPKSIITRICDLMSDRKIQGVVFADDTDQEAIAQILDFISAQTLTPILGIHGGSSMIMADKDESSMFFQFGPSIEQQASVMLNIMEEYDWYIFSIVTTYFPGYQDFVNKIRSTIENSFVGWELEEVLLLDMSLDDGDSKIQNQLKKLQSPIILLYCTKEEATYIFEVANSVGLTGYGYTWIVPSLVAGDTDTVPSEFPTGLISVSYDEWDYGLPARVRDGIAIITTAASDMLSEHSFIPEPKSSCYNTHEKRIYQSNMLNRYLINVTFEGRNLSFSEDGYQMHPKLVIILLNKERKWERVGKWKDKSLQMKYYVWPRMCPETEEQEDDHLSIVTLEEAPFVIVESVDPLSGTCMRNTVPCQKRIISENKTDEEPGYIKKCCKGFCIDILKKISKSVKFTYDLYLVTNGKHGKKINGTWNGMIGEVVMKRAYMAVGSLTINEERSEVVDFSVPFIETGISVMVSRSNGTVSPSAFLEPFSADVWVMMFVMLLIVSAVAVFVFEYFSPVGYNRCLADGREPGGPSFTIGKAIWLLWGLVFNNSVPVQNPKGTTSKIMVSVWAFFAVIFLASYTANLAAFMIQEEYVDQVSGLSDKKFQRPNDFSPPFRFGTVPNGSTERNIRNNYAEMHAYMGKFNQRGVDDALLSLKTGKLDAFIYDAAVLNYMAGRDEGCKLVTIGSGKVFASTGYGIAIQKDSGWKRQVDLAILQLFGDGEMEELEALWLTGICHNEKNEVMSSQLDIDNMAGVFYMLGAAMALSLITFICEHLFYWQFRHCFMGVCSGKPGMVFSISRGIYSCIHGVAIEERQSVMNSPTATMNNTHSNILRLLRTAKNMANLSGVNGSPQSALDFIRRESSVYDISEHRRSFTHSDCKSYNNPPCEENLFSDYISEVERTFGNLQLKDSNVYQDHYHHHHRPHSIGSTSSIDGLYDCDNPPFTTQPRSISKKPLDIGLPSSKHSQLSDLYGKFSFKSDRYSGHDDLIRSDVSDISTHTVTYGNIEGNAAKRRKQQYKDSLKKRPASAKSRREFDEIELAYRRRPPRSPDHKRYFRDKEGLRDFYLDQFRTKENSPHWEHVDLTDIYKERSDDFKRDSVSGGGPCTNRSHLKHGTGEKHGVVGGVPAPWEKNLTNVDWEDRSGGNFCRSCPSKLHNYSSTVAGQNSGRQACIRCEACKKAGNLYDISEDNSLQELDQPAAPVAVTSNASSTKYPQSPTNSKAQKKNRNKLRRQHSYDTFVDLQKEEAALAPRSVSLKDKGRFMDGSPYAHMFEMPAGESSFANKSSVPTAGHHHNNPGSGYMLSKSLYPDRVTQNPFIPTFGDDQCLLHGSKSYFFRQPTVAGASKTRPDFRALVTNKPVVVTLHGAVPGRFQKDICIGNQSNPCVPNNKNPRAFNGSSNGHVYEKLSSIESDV
compound,measurement,setting,value
"Cc1ccc(N2C[C@H](CN3CCC(Cc4ccc(F)cc4)CC3)OC2=O)cc1 [R = CH3, reference compound]",IC50,[1]; [9],> 1000 nM
same,ED50,rats [2]; [10],> 10 mg/kg
"COc1ccc(N2C[C@H](CN3CCC(Cc4ccc(F)cc4)CC3)OC2=O)cc1 [R = OCH3, (5S)-(−)-5-[4-(4-fluorobenzyl)-1-piperidinylmethyl]-3-(4-methoxyphenyl)-oxazolidin-2-one, reference compound]",IC50,[1]; [9],> 1000 nM
same,ED50,rats [2]; [10],> 10 mg/kg
"O=C1OC(CN2CCC(Cc3ccc(F)cc3)CC2)CN1c1ccc(O)cc1 (stereo not shown) [formula I, 5-[4-(4-fluorobenzyl)piperidin-1-ylmethyl]-3-(4-hydroxy-phenyl) oxazolidin-2-one]",apomorphine-induced climbing behaviour in mice,mice [3],inhibits
same,displacement of tritiated ifenprodil from its binding site,[1]; forebrain of rats,displaces
same,effect on the spontaneous behaviour of mice,mice [4],depressive effect
same,conditioned avoiding reaction in rats,rats [5],inhibits
same,occurrence of catalepsy (in words),"rats [6]; rat, in vivo",without the occurrence of catalepsy
same,ultrasound vocalization after electric stimulation in rats,rats [7],inhibits
same,effect on the spontaneous behaviour of rats,rats [8],depressive effect
same,apomorphine-induced stereotypical behaviour in rats (in words),rats [2],inhibits
"O=C1O[C@@H](CN2CCC(Cc3ccc(F)cc3)CC2)CN1c1ccc(F)cc1 [R = F, reference compound]",IC50,[1]; [9],> 1000 nM
same,ED50,rats [2]; [10],> 10 mg/kg
"O=C1O[C@@H](CN2CCC(Cc3ccc(F)cc3)CC2)CN1c1ccc(O)cc1 [R = OH, (5S)-(−)-5-[4-(4-fluorobenzyl)-1-piperidinylmethyl]-3-(4-hydroxyphenyl)oxazolidin-2-one]",IC50,"[1]; in vitro, read-out: IC50 for the polyamine binding site",10 nM
same,IC50,[1]; [9],10 nM
same,Catalepsy induction Rat,"rats [6]; 30 mg/kg s.c., rat, methanesulfonate salt",0%
same,Catalepsy ED50,rats [6]; in vivo animal models,> 30 mg/kg
same,Inhibition of apomorphine-induced stereotypical behaviour in rats 50% inhibition/ED50 s.c. at:,"rats [2]; s.c., apomorphine 0.5 mg/kg s.c., methanesulfonate salts",2.8 mg/kg

# Reference: patent US6413989B1, “Piperidinylmethyloxazolidinone derivative” (Merck Patent Gesellschaft mit beschrankter Haftung, priority 1997, dated 2002)
